Laboratory results from ChEMBL document CHEMBL4229381, “New cytokinin derivatives possess UVA and UVB photoprotective effect on human skin cells and prevent oxidative stress” (Eur J Med Chem, 2018).
Calls of active or inactive are those of the source. The calls are words filed in the database; no cut-off is given here.

What was measured:
[1] = Phototoxicity in human NHDF cells assessed as cell viability at 125 uM preincubated for 60 mins followed by 5 J/cm2 UVA irradiation and measured after 24 hrs by neutral red uptake assay relative to control; format: cell-based; details: read-out: Activity
[2] = Phototoxicity in human HaCaT cells assessed as cell viability at 15.6 uM preincubated for 60 mins followed by 7.5 J/cm2 UVA irradiation and measured after 24 hrs by neutral red uptake assay relative to control; format: cell-based; details: read-out: Activity
[3] = Cytotoxicity in human NHDF cells assessed as cell viability at 31.3 uM after 24 hrs by neutral red uptake assay relative to control; format: cell-based; details: read-out: Activity
HaCaT [4] = test: Cytotoxicity in human HaCaT cells assessed as reduction in cell viability at 50 uM after 24 hrs by resazurin dye-based fluorescence assay relative to control
[5] = Cytotoxicity in human HaCaT cells assessed as cell viability at 31.3 uM after 24 hrs by neutral red uptake assay relative to control; format: cell-based; details: read-out: Activity
HaCaT [6] = test: Cytoprotection against phototoxicity in human HaCaT cells assessed as increase in cell viability at 3.9 to 31.3 uM preincubated for 60 mins followed by 150 mJ/cm2 UVB irradiation and measured after 24 hrs by neutral red uptake assay; format: functional, cell-based
[7] = Phototoxicity in human HaCaT cells assessed as cell viability at 31.3 uM preincubated for 60 mins followed by 7.5 J/cm2 UVA irradiation and measured after 24 hrs by neutral red uptake assay relative to control; format: cell-based; details: read-out: Activity
Amaranthus caudatus = test: Growth promoting activity in Amaranthus caudatus var. atropurpurea seeds by measuring betacyanin at 10^-4 mol/L after 48 hrs relative to control; format: functional
[8] = Phototoxicity in human HaCaT cells assessed as cell viability at 3.9 uM preincubated for 60 mins followed by 7.5 J/cm2 UVA irradiation and measured after 24 hrs by neutral red uptake assay relative to control; format: cell-based; details: read-out: Activity
[9] = Cytotoxicity in human HaCaT cells assessed as cell viability at 125 uM after 24 hrs by neutral red uptake assay relative to control; format: cell-based; details: read-out: Activity
BJ = test: Cytotoxicity in human BJ cells assessed as reduction in cell viability at 50 uM after 24 hrs by resazurin dye-based fluorescence assay relative to control
[10] = Cytotoxicity in human HaCaT cells assessed as cell viability at 62.5 uM after 24 hrs by neutral red uptake assay relative to control; format: cell-based; details: read-out: Activity
[11] = Cytotoxicity in human NHDF cells assessed as cell viability at 3.9 uM after 24 hrs by neutral red uptake assay relative to control; format: cell-based; details: read-out: Activity
[12] = Cytotoxicity in human HaCaT cells assessed as cell viability at 3.9 uM after 24 hrs by neutral red uptake assay relative to control; format: cell-based; details: read-out: Activity
[13] = Phototoxicity in human NHDF cells assessed as cell viability at 7.8 uM preincubated for 60 mins followed by 5 J/cm2 UVA irradiation and measured after 24 hrs by neutral red uptake assay relative to control; format: cell-based; details: read-out: Activity
Nicotiana tabacum = test: Growth promoting activity in tobacco callus assessed as callus weight at 10^-5 mol/L after 4 weeks relative to control; format: functional
[14] = Cytotoxicity in human NHDF cells assessed as cell viability at 125 uM after 24 hrs by neutral red uptake assay relative to control; format: cell-based; details: read-out: Activity
[15] = Cytotoxicity in human NHDF cells assessed as cell viability at 7.8 uM after 24 hrs by neutral red uptake assay relative to control; format: cell-based; details: read-out: Activity
HaCaT [16] = test: Potency index, ratio of compound effect to rosmarinic acid effect for cytoprotection against phototoxicity in human HaCaT cells assessed as increase in cell viability at 3.9 uM preincubated for 60 mins followed by 150 mJ/cm2 UVB irradiation and measured after 24 hrs by neutral red uptake assay; format: functional
[17] = Cytotoxicity in human HaCaT cells assessed as cell viability at 15.6 uM after 24 hrs by neutral red uptake assay relative to control; format: cell-based; details: read-out: Activity
[18] = Phototoxicity in human HaCaT cells assessed as cell viability at 7.8 uM preincubated for 60 mins followed by 7.5 J/cm2 UVA irradiation and measured after 24 hrs by neutral red uptake assay relative to control; format: cell-based; details: read-out: Activity
[19] = Antioxidant activity assessed as trolox equivalent of AAPH-induced radical scavenging activity at 1 uM pretreated for 15 mins followed by […] challenge measured every 3 mins over 90 mins by ORAC-FL assay; format: functional
Triticum aestivum = test: Anti-senescent activity in leaf of Triticum aestivum cv. Hereward seedlings by measuring chlorophyll retention at 10^-4 mol/L after 4 days relative to control; format: functional
HaCaT [20] = test: Cytoprotection against phototoxicity in human HaCaT cells assessed as increase in cell viability at 3.9 uM preincubated for 60 mins followed by 10 J/cm2 UVA irradiation and measured after 24 hrs by neutral red uptake assay; format: functional, cell-based
[21] = Cytotoxicity in human NHDF cells assessed as cell viability at 15.6 uM after 24 hrs by neutral red uptake assay relative to control; format: cell-based; details: read-out: Activity
NHDF [22] = test: Cytoprotection against phototoxicity in human NHDF cells assessed as increase in cell viability at 3.9 to 31.3 uM preincubated for 60 mins followed by 150 mJ/cm2 UVB irradiation and measured after 24 hrs by neutral red uptake assay; format: functional, cell-based
[23] = Phototoxicity in human HaCaT cells assessed as cell viability at 125 uM preincubated for 60 mins followed by 7.5 J/cm2 UVA irradiation and measured after 24 hrs by neutral red uptake assay relative to control; format: cell-based; details: read-out: Activity
[24] = Phototoxicity in human NHDF cells assessed as cell viability at 3.9 uM preincubated for 60 mins followed by 5 J/cm2 UVA irradiation and measured after 24 hrs by neutral red uptake assay relative to control; format: cell-based; details: read-out: Activity
[25] = Phototoxicity in human NHDF cells assessed as cell viability at 31.3 uM preincubated for 60 mins followed by 5 J/cm2 UVA irradiation and measured after 24 hrs by neutral red uptake assay relative to control; format: cell-based; details: read-out: Activity
[26] = Phototoxicity in human NHDF cells assessed as cell viability at 15.6 uM preincubated for 60 mins followed by 5 J/cm2 UVA irradiation and measured after 24 hrs by neutral red uptake assay relative to control; format: cell-based; details: read-out: Activity
[27] = Cytotoxicity in human HaCaT cells assessed as cell viability at 7.8 uM after 24 hrs by neutral red uptake assay relative to control; format: cell-based; details: read-out: Activity
[28] = Cytotoxicity in human NHDF cells assessed as cell viability at 62.5 uM after 24 hrs by neutral red uptake assay relative to control; format: cell-based; details: read-out: Activity
[29] = Phototoxicity in human HaCaT cells assessed as cell viability at 62.5 uM preincubated for 60 mins followed by 7.5 J/cm2 UVA irradiation and measured after 24 hrs by neutral red uptake assay relative to control; format: cell-based; details: read-out: Activity
HaCaT [30] = test: Potency index, ratio […] for cytoprotection against phototoxicity in human HaCaT cells assessed as increase in cell viability at 3.9 preincubated for 60 mins followed by 150 mJ/cm2 UVB irradiation and measured after 24 hrs by neutral red uptake assay; format: functional
[31] = Phototoxicity in human NHDF cells assessed as cell viability at 62.5 uM preincubated for 60 mins followed by 5 J/cm2 UVA irradiation and measured after 24 hrs by neutral red uptake assay relative to control; format: cell-based; details: read-out: Activity
NHDF [32] = test: Phototoxicity in human NHDF cells assessed as reduction in cell viability preincubated for 60 mins followed by 5 J/cm2 UVA irradiation and measured after 24 hrs by neutral red uptake assay; format: cell-based; details: light or radiation study
HaCaT [33] = test: Phototoxicity in human HaCaT cells assessed as reduction in cell viability preincubated for 60 mins followed by 7.5 J/cm2 UVA irradiation and measured after 24 hrs by neutral red uptake assay; format: cell-based; details: light or radiation study
[34] = Stability of the compound in pH 3 solution at 10^-4 M after 24 hrs by HPLC analysis; format: physicochemical; details: read-out: Stability
[35] = Stability of the compound in pH 4 solution at 10^-4 M after 1 hr by HPLC analysis; format: physicochemical; details: read-out: Stability
[36] = Stability of the compound in pH 5 solution at 10^-4 M after 1 hr by HPLC analysis; format: physicochemical; details: read-out: Stability
[37] = Stability of the compound in pH 5 solution at 10^-4 M after 24 hrs by HPLC analysis; format: physicochemical; details: read-out: Stability
[38] = Stability of the compound in pH 7 solution at 10^-4 M after 1 hr by HPLC analysis; format: physicochemical; details: read-out: Stability
[39] = Stability of the compound in pH 4 solution at 10^-4 M after 24 hrs by HPLC analysis; format: physicochemical; details: read-out: Stability
[40] = Stability of the compound in pH 6 solution at 10^-4 M after 1 hr by HPLC analysis; format: physicochemical; details: read-out: Stability
[41] = Stability of the compound in pH 3 solution at 10^-4 M after 1 hr by HPLC analysis; format: physicochemical; details: read-out: Stability
[42] = Stability of the compound in pH 6 solution at 10^-4 M after 24 hrs by HPLC analysis; format: physicochemical; details: read-out: Stability
[43] = Stability of the compound in pH 7 solution at 10^-4 M after 24 hrs by HPLC analysis; format: physicochemical; details: read-out: Stability

Q: Which viability at 24 h, 125 µM [1] does the source give for Clc1nc(NCC2CCCO2)c2ncn(C3CCCO3)c2n1 (stereo unspecified) here?
A: 105%

Q: And the viability at 24 h, 15.6 µM [2]?
A: 110%

Q: And the viability at 24 h, 31.3 µM [3]?
A: 106%

Q: And the Activity (HaCaT [4])?
A: < 10%

Q: What about the viability at 24 h, 31.3 µM [5] of the same compound?
A: 109%

Q: What about the Activity (HaCaT [6]) of the same compound?
A: Active

Q: What about the viability at 24 h, 31.3 µM [7] of the same compound?
A: 121%

Q: And the Activity (Amaranthus caudatus)?
A: 83%

Q: What about the viability at 24 h, 3.9 µM [8] of the same compound?
A: 105%

Q: What about the viability at 24 h, 125 µM [9] of the same compound?
A: 111%

Q: And the Activity (BJ)?
A: < 10%

Q: What about the viability at 24 h, 62.5 µM [10] of the same compound?
A: 111%

Q: And the viability at 24 h, 3.9 µM [11]?
A: 103%

Q: What about the viability at 24 h, 3.9 µM [12] of the same compound?
A: 104%

Q: What about the viability at 24 h, 7.8 µM [13] of the same compound?
A: 103%

Q: And the Activity (Nicotiana tabacum)?
A: 104%

Q: What about the viability at 24 h, 125 µM [14] of the same compound?
A: 104%

Q: And the viability at 24 h, 7.8 µM [15]?
A: 103%

Q: And the Ratio (HaCaT [16])?
A: >2

Q: And the viability at 24 h, 15.6 µM [17]?
A: 104%

Q: What about the viability at 24 h, 7.8 µM [18] of the same compound?
A: 112%

Q: What about the Activity [19] of the same compound?
A: < 0.05 equiv

Q: What about the Activity (Triticum aestivum) of the same compound?
A: 111%

Q: And the Activity (HaCaT [20])?
A: inactive

Q: And the viability at 24 h, 15.6 µM [21]?
A: 101%

Q: What about the Activity (NHDF [22]) of the same compound?
A: Active

Q: What about the viability at 24 h, 125 µM [23] of the same compound?
A: 126%

Q: What about the viability at 24 h, 3.9 µM [24] of the same compound?
A: 100%

Q: What about the viability at 24 h, 31.3 µM [25] of the same compound?
A: 103%

Q: What about the viability at 24 h, 15.6 µM [26] of the same compound?
A: 100%

Q: And the viability at 24 h, 7.8 µM [27]?
A: 103%

Q: And the viability at 24 h, 62.5 µM [28]?
A: 102%

Q: What about the viability at 24 h, 62.5 µM [29] of the same compound?
A: 126%

Q: What about the Ratio (HaCaT [30]) of the same compound?
A: >2

Q: And the viability at 24 h, 62.5 µM [31]?
A: 105%

Q: Which results are given for CN(C)CCCN1c2ccccc2Sc2ccc(Cl)cc21 [CHLORPROMAZINE]?
A: IC50 (NHDF [32]): 25.5 µM; IC50 (HaCaT [33]): 36.1 µM

Q: For c1nc(NCC2CCCO2)c2ncn(C3CCCO3)c2n1 (stereo unspecified), which remaining at 24 h, 100 µM [34] is on record?
A: 0.4%

Q: What about the Activity (Amaranthus caudatus) of the same compound?
A: 38%

Q: What about the remaining at 1 h, 100 µM [35] of the same compound?
A: 100%

Q: What about the remaining at 1 h, 100 µM [36] of the same compound?
A: 100%

Q: And the remaining at 24 h, 100 µM [37]?
A: 92.6%

Q: What about the remaining at 1 h, 100 µM [38] of the same compound?
A: 100%

Q: What about the Activity (Nicotiana tabacum) of the same compound?
A: 100%

Q: What about the remaining at 24 h, 100 µM [39] of the same compound?
A: 44.3%

Q: And the Activity [19]?
A: < 0.05 equiv

Q: What about the remaining at 1 h, 100 µM [40] of the same compound?
A: 100%

Q: What about the remaining at 1 h, 100 µM [41] of the same compound?
A: 94.3%

Q: What about the Activity (Triticum aestivum) of the same compound?
A: 116%

Q: And the remaining at 24 h, 100 µM [42]?
A: 100%

Q: And the remaining at 24 h, 100 µM [43]?
A: 100%
